Measured values reported in patent US20250019387A1 (Frontier Medicines Corporation, priority 0001, published 2025).

molecular target: KRAS G12C and cRAF (Ras-binding domain) interaction (Homo sapiens (Human), UniProt P01116, C118S/C51S/C80L/G12C); assay: Inhibition of KRAS G12C and cRAF binding (AlphaScreen); settings: GMPPNP-loaded KRAS G12C, 19-20 hours incubation with compound; read-out: IC50 (Inhibition of KRAS G12C and cRAF Binding)
How it was run: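 Compounds (DMSO) preincubated 19-20 h at room temperature, then RBD with streptavidin donor and glutathione acceptor beads added in 25 mM Hepes pH 7.4, 150 mM NaCl, 5 mM MgCl2, 0.01% Triton X-100, 2% DMSO for 60-90 min. Emission 570 nm (excitation 680 nm); IC50 by 4-parameter fit. Counter-screen used biotin-AviTag-GST instead of RBD.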

Sequence of KRAS G12C and cRAF (Ras-binding domain) interaction (P01116 other isoform, or with tags, fused parts or gaps G12C/C51S/C80L/C118S): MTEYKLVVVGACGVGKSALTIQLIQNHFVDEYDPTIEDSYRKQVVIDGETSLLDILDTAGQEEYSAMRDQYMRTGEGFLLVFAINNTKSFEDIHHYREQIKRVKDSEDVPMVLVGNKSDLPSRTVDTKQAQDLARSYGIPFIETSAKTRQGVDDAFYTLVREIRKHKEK

Compound	IC50 [nM]
C=CS(=O)(=O)CCN(C)c1nc(OCC23CCCN2CCC3)nc2c1CCN(c1cccc3cccc(Cl)c13)C2 [Example 49, 7-(8-chloronaphthalen-1-yl)-2-((hexahydro-1H-pyrrolizin-7a-yl)methoxy)-N-methyl-N-(2-(vinylsulfonyl)ethyl)-5,6,7,8-tetrahydropyrido[3,4-d]pyrimidin-4-amine]	< 10
C=CS(=O)(=O)C1CN(c2nc(OC[C@@H]3CCCN3C)nc3c2CCN(c2cccc4cccc(Cl)c24)C3)C1 [Example 50, (S)-7-(8-chloronaphthalen-1-yl)-2-((1-methylpyrrolidin-2-yl)methoxy)-4-(3-(vinylsulfonyl)azetidin-1-yl)-5,6,7,8-tetrahydropyrido[3,4-d]pyrimidine]	> 500
Cc1ncc(F)c(/C=C/C(=O)N2CC[C@@H](N(C)c3nc(OC[C@@]45CCCN4C[C@H](F)C5)nc4c(F)c(-c5cccc6cccc(Cl)c56)ncc34)C2)n1 [Example 241, (E)-1-((R)-3-((7-(8-chloronaphthalen-1-yl)-8-fluoro-2-(((2R,7aS)-2-fluorotetrahydro-1H-pyrrolizin-7a(5H)-yl)methoxy)pyrido[4,3-d]pyrimidin-4-yl)(methyl)amino)pyrrolidin-1-yl)-3-(5-fluoro-2-methylpyrimidin-4-yl)prop-2-en-1-one]	100 to 500
CN(c1nc(OC[C@@]23CCCN2C[C@H](F)C3)nc2c(F)c(-c3cccc4cccc(Cl)c34)ncc12)[C@@H]1CCN(C(=O)/C=C/c2nc(C3CCC3)no2)C1 [Example 111, (E)-1-((R)-3-((7-(8-chloronaphthalen-1-yl)-8-fluoro-2-(((2R,7aS)-2-fluorohexahydro-1H-pyrrolizin-7a-yl)methoxy)pyrido[4,3-d]pyrimidin-4-yl)(methyl)amino)pyrrolidin-1-yl)-3-(3-cyclobutyl-1,2,4-oxadiazol-5-yl)prop-2-en-1-one]	10 to 100
CN(c1nc(OC[C@@]23CCCN2C[C@H](F)C3)nc2c(F)c(-c3cccc4ccc(F)c(Cl)c34)ncc12)[C@@H]1CCN(C(=O)C#CCN2CC(F)C2)C1 [Example 225, 1-((R)-3-((7-(8-chloro-7-fluoronaphthalen-1-yl)-8-fluoro-2-(((2R,7aS)-2-fluorohexahydro-1H-pyrrolizin-7a-yl)methoxy)pyrido[4,3-d]pyrimidin-4-yl)(methyl)amino)pyrrolidin-1-yl)-4-(3-fluoroazetidin-1-yl)but-2-yn-1-one]	10 to 100
CN(c1nc(OCC23CCCN2CCC3)nc2c(F)c(-c3cccc4cccc(Cl)c34)ncc12)[C@@H]1CCN(C(=O)/C=C/c2nc(C(C)(C)C)no2)C1 [Example 147, (R,E)-3-(3-(tert-butyl)-1,2,4-oxadiazol-5-yl)-1-(3-((7-(8-chloronaphthalen-1-yl)-8-fluoro-2-((hexahydro-1H-pyrrolizin-7a-yl)methoxy)pyrido[4,3-d]pyrimidin-4-yl)(methyl)amino)pyrrolidin-1-yl)prop-2-en-1-one]	10 to 100
CN(c1nc(OC[C@@]23CCCN2C[C@H](F)C3)nc2c(F)c(-c3cccc4cccc(Cl)c34)ncc12)[C@@H]1CCN(C(=O)/C=C/[C@H]2CCN2CCO)C1 [Example 233, (E)-1-((R)-3-((7-(8-chloronaphthalen-1-yl)-8-fluoro-2-(((2R,7aS)-2-fluorotetrahydro-1H-pyrrolizin-7a(5H)-yl)methoxy)pyrido[4,3-d]pyrimidin-4-yl)(methyl)amino)pyrrolidin-1-yl)-3-((R)-1-(2-hydroxyethyl)azetidin-2-yl)prop-2-en-1-one]	10 to 100
CN(CC1CN(C(=O)/C=C/c2ccncn2)C1)c1nc(OC[C@@]23CCCN2C[C@H](F)C3)nc2c1CCN(c1cccc3cccc(Cl)c13)C2 [Example 70, (E)-1-(3-(((7-(8-chloronaphthalen-1-yl)-2-(((2R,7aS)-2-fluorohexahydro-1H-pyrrolizin-7a-yl)methoxy)-5,6,7,8-tetrahydropyrido[3,4-d]pyrimidin-4-yl)(methyl)amino)methyl)azetidin-1-yl)-3-(pyrimidin-4-yl)prop-2-en-1-one]	10 to 100
Cc1nccc(/C=C/C(=O)N2CC(CN(C)c3nc(OC[C@@]45CCCN4C[C@H](F)C5)nc4c(F)c(-c5cccc6ccc(F)c(Cl)c56)ncc34)C2)n1 [Example 68, (E)-1-(3-(((7-(8-chloro-7-fluoronaphthalen-1-yl)-8-fluoro-2-(((2R,7aS)-2-fluorotetrahydro-1H-pyrrolizin-7a(5H)-yl)methoxy)pyrido[4,3-d]pyrimidin-4-yl)(methyl)amino)methyl)azetidin-1-yl)-3-(2-methylpyrimidin-4-yl)prop-2-en-1-one]	10 to 100
Cc1nsc(/C=C/C(=O)N2CC(CN(C)c3nc(OC[C@@]45CCCN4C[C@H](F)C5)nc4c(F)c(-c5cccc6cccc(Cl)c56)ncc34)C2)n1 [Example 74, (E)-1-(3-(((7-(8-chloronaphthalen-1-yl)-8-fluoro-2-(((2R,7aS)-2-fluorotetrahydro-1H-pyrrolizin-7a(5H)-yl)methoxy)pyrido[4,3-d]pyrimidin-4-yl)(methyl)amino)methyl)azetidin-1-yl)-3-(3-methyl-1,2,4-thiadiazol-5-yl)prop-2-en-1-one]	100 to 500
Cc1nc(C)c(F)c(/C=C/C(=O)N2CC[C@@H](N(C)c3nc(OC[C@@]45CCCN4C[C@H](F)C5)nc4c(F)c(-c5cccc6ccc(F)c(F)c56)ncc34)C2)n1 [Example 294, (E)-1-((R)-3-((7-(7,8-difluoronaphthalen-1-yl)-8-fluoro-2-(((2R,7aS)-2-fluorotetrahydro-1H-pyrrolizin-7a(5H)-yl)methoxy)pyrido[4,3-d]pyrimidin-4-yl)(methyl)amino)pyrrolidin-1-yl)-3-(5-fluoro-2,6-dimethylpyrimidin-4-yl)prop-2-en-1-one]	100 to 500
Cc1noc(/C=C/C(=O)N2CC(CN(C)c3nc(OC[C@@]45CCCN4C[C@H](F)C5)nc4c(F)c(-c5cc(O)cc6ccccc56)ncc34)C2)n1 [Example 86, (E)-1-(3-(((8-fluoro-2-(((2R,7aS)-2-fluorotetrahydro-1H-pyrrolizin-7a(5H)-yl)methoxy)-7-(3-hydroxynaphthalen-1-yl)pyrido[4,3-d]pyrimidin-4-yl)(methyl)amino)methyl)azetidin-1-yl)-3-(3-methyl-1,2,4-oxadiazol-5-yl)prop-2-en-1-one]	< 10
CN(c1nc(OC[C@@]23CCCN2C[C@H](F)C3)nc2c1CCN(c1cccc3cccc(Cl)c13)C2)[C@@H]1CCN(C(=O)/C=C/c2nc(C3CC3)no2)C1 [Example 120, (E)-1-((R)-3-((7-(8-chloronaphthalen-1-yl)-2-(((2R,7aS)-2-fluorohexahydro-1H-pyrrolizin-7a-yl)methoxy)-5,6,7,8-tetrahydropyrido[3,4-d]pyrimidin-4-yl)(methyl)amino)pyrrolidin-1-yl)-3-(3-cyclopropyl-1,2,4-oxadiazol-5-yl)prop-2-en-1-one]	10 to 100
CCc1c(F)ccc2cccc(-c3ncc4c(N(C)[C@@H]5CCN(C(=O)/C=C/[C@H]6CCN6C)C5)nc(OC[C@@]56CCCN5C[C@H](F)C6)nc4c3F)c12 [Example 196, (E)-1-((R)-3-((7-(8-ethyl-7-fluoronaphthalen-1-yl)-8-fluoro-2-(((2R,7aS)-2-fluorotetrahydro-1H-pyrrolizin-7a(5H)-yl)methoxy)pyrido[4,3-d]pyrimidin-4-yl)(methyl)amino)pyrrolidin-1-yl)-3-((R)-1-methylazetidin-2-yl)prop-2-en-1-one]	10 to 100

same assay, conditions: additional exemplary compounds; KRAS G12C and cRAF binding; read-out: RAF1 RBD IC50

Compound	IC50 [nM]
CN(c1nc(OC[C@@]23CCCN2C[C@H](F)C3)nc2c(F)c(-c3cccc4cccc(Cl)c34)ncc12)[C@@H]1CCN(C(=O)/C=C/c2ncn(C)n2)C1	> 500
CCN(C/C=C/S(=O)(=O)CCN(C)c1nc(OCC23CCCN2CCC3)nc2c1CCN(c1cccc3cccc(Cl)c13)C2)CCOC	10 to 100
Cc1nccc(/C=C/C(=O)N2CC3(C2)CN(c2nc(OC[C@@]45CCCN4C[C@H](F)C5)nc4c(F)c(-c5cccc6cccc(Cl)c56)ncc24)C3)n1	> 500
CN(c1nc(OCC23CCCN2CCC3)nc2c(F)c(-c3cccc4cccc(Cl)c34)ncc12)[C@@H]1CCN(C(=O)/C=C/c2ncn(C)n2)C1	> 500
CN(C)C/C=C/S(=O)(=O)C1CCCN(c2nc(OCC34CCCN3CCC4)nc3c(F)c(-c4cccc5cccc(Cl)c45)ncc23)C1 (stereo not shown)	10 to 100
COC/C=C/S(=O)(=O)CCN(C)c1nc(OCC23CCCN2CCC3)nc2c1CCN(c1cccc3cccc(Cl)c13)C2	100 to 500
C=CC(=O)N1C[C@H](N(C)c2nc(OCC34CCCN3CCC4)nc3c(F)c(-c4cccc5cccc(Cl)c45)ncc23)[C@H]1C	> 500
Cc1nccc(/C=C/C(=O)N2[C@@H]3CC[C@H]2CN(c2nc(OC[C@@]45CCCN4C[C@H](F)C5)nc4c(F)c(-c5cccc6cccc(Cl)c56)ncc24)C3)n1	> 500
C=CC(=O)CCN(C)c1nc(OC[C@@H]2CCCN2C)nc2c1CCN(c1cccc3cccc(Cl)c13)C2	10 to 100
CCN(CC)C/C=C/S(=O)(=O)CCN(C)c1nc(OC[C@@H]2CCCN2C)nc2c(F)c(-c3cccc4cccc(Cl)c34)ncc12	10 to 100
C=CC(=O)N1CC[C@@H](N(CC(F)(F)F)c2nc(OC[C@@]34CCCN3C[C@H](F)C4)nc3c(F)c(-c4cccc5cccc(Cl)c45)ncc23)C1	> 500
C=CC(=O)CCCCN(C)c1nc(OC[C@@H]2CCCN2C)nc2c1CCN(c1cccc3ccccc13)C2	100 to 500
CN(c1nc(OC[C@@]23CCCN2C[C@H](F)C3)nc2c1CCN(c1cccc3cccc(Cl)c13)C2)[C@@H]1CCN(C(=O)/C=C/c2ncn(C)n2)C1	> 500
C=CC(=O)N(C)C[C@@H]1CCN1c1nc(OC[C@@]23CCCN2C[C@H](F)C3)nc2c(F)c(-c3cccc4cccc(Cl)c34)ncc12	> 500
